Laboratory results taken from patent EP0184990A1, “Alkylidenedioxy compounds” (CIBA-GEIGY AG, priority 1984, dated 1986).
Read-outs that look alike come from different tables or passages of the source.

What was measured:
[1] = system: Rauscher-Leukämie-Virus (RLV, ein RNS-Tumorvirus); test: Rauscher leukaemia virus infection in mice, survival time; assay type: in vivo, weibliche Balb/c-Mäuse; settings: 20 p.o. administrations of 125 mg/kg each, female Balb/c mice infected with Rauscher leukaemia virus; controls 31,7 Tage (p < 0,001 Cox-Test)
Text: Die Wirkung auf Virusinfektionen kann anhand von in vivo-Testanordnungen festgestellt werden. So besitzen Verbindungen der Formel I in Tierexperimenten bei gewissen neoplastischen Krankheiten, die durch RNS-Tumorviren hervorgerufen werden, oder bei denen RNS-Tumorviren nachweisbar sind, eine starke Wirksamkeit. Sie verlängern z.B. die mittlere Ueberlebensdauer von Mäusen nach Infektion mit Rauscher-Leukämie-Virus (RLV, ein RNS-Tumorvirus).
Bei den Versuchen mit Rauscher-Leukämie 4 Q (NIH) werden weibliche Balb/c-Mäuse (28 bis 34 Tage alt) mit 0,2 ml einer zehnfach mit Hanks Lösung verdünnten Virussuspension aus Milzmaterial von 4-6 Wochen vorher infizierten Mäusen infiziert. […] Die erste Verabreichung erfolgt 30 Minuten vor der Infektion, weitere Verabreichungen täglich einmal und fünfmal in der Woche während 4 Wochen. Als Kriterium für die Wirkung dient die Verlängerung der Ueberlebenszeit. Während bei den Kontrolltieren ab 30 Tagen nach der Infektion eine Leukämie mit leukämischen Blutzellen von über 50000/mm^3 gefunden werden können und die Tiere zu sterben beginnen, wird die Ueberlebenszeit der mit 125 mg/kg p.o. der Testsubstanz behandelten weiblichen Mäuse signifikant verlängert. […]

[2] = Maximum tolerated dose in mice after single administration; set-up: species or system Mäusen; settings: mouse, in vivo, 7-day observation, read-out: maximal tolerierte Dosis
Method: Die pharmakologische Wirksamkeit der Verbindungen der vorliegenden Erfindung ist begleitet von einer guten Verträglichkeit. So liegt die maximal tolerierte Dosis für das obengenannte 6,6-Dimethyl-4,5-dihydro-6H-(1,3-dioxolo)r3,41naphthor1,2-blpyran in Mäusen nach einmaliger p.o- und i.p.-Verabreichung und anschliessender 7-tägiger Beobachtungsdauer über 2500 mg/kg bzw. über 1250 mg/kg.

## CC1(C)CCc2c3c(c4ccccc4c2O1)OCO3 [Beispiel 1, 6,6-Dimethyl-4,5-dihydro-6H-(1,3-dioxolo)f3,41-naphthof1,2-blpyran]
[1]
  Ueberlebenszeit: 60,9 Tage
[2]; ip, single i.p. administration
  MTD at 168 h: > 1250 mg/kg
[2]; po, single p.o. administration
  MTD at 168 h: > 2500 mg/kg
